Measured values published in the supplement of paper PMC10307832.

Experiments:
Assay in all cases: relative viability (nuclei count vs DMSO), 5 days (fraction); higher = more cells survive
Entinostat + Vorinostat = compound: Nc1ccccc1NC(=O)c1ccc(CNC(=O)OCc2cccnc2)cc1 [Entinostat] + O=C(CCCCCCC(=O)Nc1ccccc1)NO [Vorinostat] (partner 1 µM)
Outline: (§1)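 Relative viability is defined as nuclei in treated wells over nuclei in vehicle wells. Duplicate plates were run and medians reported. Lung cancer cell lines in 1536-well plates were dosed by pin tool one day after seeding, with one drug or with a fixed anchor-drug dose plus five library-drug doses (not always all listed) in √10 steps, and nuclei were counted after 5 days.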

SGI-1776 + Navitoclax = compound: CN1CCC(CNc2ccc3ncc(-c4cccc(OC(F)(F)F)c4)n3n2)CC1 [SGI-1776] + CC1(C)CCC(c2ccc(Cl)cc2)=C(CN2CCN(c3ccc(C(=O)NS(=O)(=O)c4ccc(N[C@H](CCN5CCOCC5)CSc5ccccc5)c(S(=O)(=O)C(F)(F)F)c4)cc3)CC2)C1 [Navitoclax] (partner 0.5 µM)
Outline: as §1

Entinostat + AZD7762 = compound: Nc1ccccc1NC(=O)c1ccc(CNC(=O)OCc2cccnc2)cc1 [Entinostat] + NC(=O)Nc1cc(-c2cccc(F)c2)sc1C(=O)N[C@H]1CCCNC1 [AZD7762] (partner 0.2 µM)
Outline: as §1

Entinostat + Decitabine = compound: Nc1ccccc1NC(=O)c1ccc(CNC(=O)OCc2cccnc2)cc1 [Entinostat] + Nc1ncn([C@H]2C[C@H](O)[C@@H](CO)O2)c(=O)n1 [Decitabine] (partner 2 µM)
Outline: as §1

| Cell Line | relative viability (Entinostat + Vorinostat; first compound 0.02 µM) | relative viability (Entinostat + Vorinostat; first compound 0.06325 µM) | relative viability (Entinostat + Vorinostat; first compound 0.2 µM) | relative viability (Entinostat + Vorinostat; first compound 0.6325 µM) | relative viability (Entinostat + Vorinostat; first compound 2 µM) | relative viability (SGI-1776 + Navitoclax; first compound 0.08 µM) | relative viability (SGI-1776 + Navitoclax; first compound 0.8 µM) | relative viability (SGI-1776 + Navitoclax; first compound 2.53 µM) | relative viability (SGI-1776 + Navitoclax; first compound 8 µM) | relative viability (Entinostat + AZD7762; first compound 0.02 µM) | relative viability (Entinostat + AZD7762; first compound 0.06325 µM) | relative viability (Entinostat + AZD7762; first compound 0.2 µM) | relative viability (Entinostat + AZD7762; first compound 0.6325 µM) | relative viability (Entinostat + AZD7762; first compound 2 µM) | relative viability (Entinostat + Decitabine; first compound 0.02 µM) | relative viability (Entinostat + Decitabine; first compound 0.06325 µM) | relative viability (Entinostat + Decitabine; first compound 0.2 µM) | relative viability (Entinostat + Decitabine; first compound 0.6325 µM) | relative viability (Entinostat + Decitabine; first compound 2 µM) |
| --- | --- | --- | --- | --- | --- | --- | --- | --- | --- | --- | --- | --- | --- | --- | --- | --- | --- | --- | --- |
| NCI-H23 | 0.601 | 0.681 | 0.496 | 0.271 | 0.198 | 0.988 | 0.728 | 0.837 | 0.729 | 0.377 | 0.294 | 0.251 | 0.137 | 0.121 | 0.32 | 0.344 | 0.3 | 0.268 | 0.234 |
| CAL-12T | 0.606 | 0.892 | 0.734 | 0.52 | 0.423 | 1.3 | 1.1 | 1.29 | 1.09 | 0.775 | 0.578 | 0.67 | 0.642 | 0.464 | – | – | – | – | – |
| A-427 | 0.87 | 0.875 | 0.864 | 0.781 | 0.617 | 1.03 | 0.957 | 0.953 | 1.03 | 0.703 | 0.775 | 0.731 | 0.584 | 0.428 | 0.536 | 0.507 | 0.528 | 0.477 | 0.438 |
| HARA | 0.541 | 0.482 | 0.329 | 0.324 | 0.182 | 1.15 | 1.17 | 1.16 | 1.16 | 0.37 | 0.229 | 0.34 | 0.215 | 0.244 | 0.602 | 0.521 | 0.557 | 0.456 | 0.276 |
| NCI-H1793 | 0.78 | 0.854 | 0.801 | 0.439 | 0.29 | 0.358 | 0.52 | 0.482 | 0.31 | 0.508 | 0.643 | 0.302 | 0.23 | 0.302 | 0.519 | 0.56 | 0.383 | 0.256 | 0.253 |
| NCI-H2023 | 0.541 | 0.536 | 0.318 | 0.118 | 0.0713 | 1.04 | 1.04 | 0.998 | 0.979 | – | – | – | – | – | 0.199 | 0.14 | 0.157 | 0.0887 | 0.0748 |
| ABC-1 | 1.34 | 1.35 | 0.854 | 0.759 | 0.511 | – | – | – | – | 0.803 | 0.727 | 0.951 | 0.86 | 0.59 | 1.04 | 1.41 | 1.1 | 0.91 | 0.626 |
| LC-2-ad | 0.666 | 0.686 | 0.695 | 0.356 | 0.257 | 0.463 | 0.434 | 0.464 | 0.257 | 0.884 | 0.853 | 0.759 | 0.497 | 0.257 | 0.833 | 0.74 | 0.642 | 0.611 | 0.438 |
| NCI-H441 | 0.695 | 0.61 | 0.465 | 0.261 | 0.161 | 0.775 | 0.732 | 0.629 | 0.374 | 1.05 | 0.883 | 0.715 | 0.281 | 0.196 | 0.237 | 0.284 | 0.264 | 0.138 | 0.132 |
